Source: PMC6471485, “Selective Inhibitors of a Human Prolyl Hydroxylase (OGFOD1) Involved in Ribosomal Decoding” (Chemistry (Weinheim an Der Bergstrasse, Germany), 2019)

biological target: T1, PHD2181-426 (Homo sapiens, UniProt Q9GZT9); experiment: PHD2 inhibition assay: hydroxylation of HIF-1a CODD peptide by MALDI-TOF MS; type: biochemical; conditions: inhibitor 100 µM, PHD2181-426 1 µM (Figures S2, S8)
T1 construct: 181-426 (1 µM) was
Description: (§1) OGFOD1 inhibition assays were performed by determining the extent of hydroxylation of a 20mer fragment of human ribosomal protein S23 (RPS23) containing residues 51-70 (H2N- […]
(§2) -CONH2) by matrix-assisted laser desorption/ionization time-of-flight mass spectrometry (MALDI-TOF MS) using a Waters Micromass MALDI micro MX mass spectrometer and MassLynx 4.1, as previously described.[7,8] The optimized hydroxylation assay involved incubation of OGFOD1 (1 µM) with inhibitor (1 % v/v in DMSO) in the presence of (NH4)2Fe(SO4)2 (50 µM), the disodium salt of 2-oxoglutarate (25 µM), […]
(§3) OGFOD1 was pre-incubated with inhibitor for 5 min before initiation of the reaction via the addition of the other reagents. Reactions were quenched with formic acid (1 % v/v) after 15 min. Samples were prepared for MALDI using α-cyano-4-hydrocinnamic acid (CHCA; prepared in 50 % acetonitrile) as a matrix. Dose-responses were assessed in 8-point triplicates, normalized to a no enzyme negative control and a no inhibitor positive control. Non-linear regression analysis was performed using Prism (GraphPad).
PHD2181-426 inhibition assays were performed by determining the extent of hydroxylation of a HIF-1a CODD peptide substrate (HIF-1a residues 556-574), using MALDI-TOF MS as described with OGFOD1.[8] The optimized hydroxylation assay involved incubation of PHD2181-426 (1 µM) with inhibitor (1 % v/v in DMSO) in the presence of (NH4)2Fe(SO4)2 (10 µM), the disodium salt of 2-oxoglutarate (60 µM), sodium ascorbate (100 µM), and HIF-1aCODD 556-574 (50 µM) in HEPES (50 mM, pH 7.5) at 37 °C for 15 min. The FIH assay employed MALDI-TOF MS detection of hydroxylation. Reactions consisted of FIH […]
(50 nM), ankyrin peptide (50 µM; […]), the disodium salt of 2- […]
oxoglutarate (100 µM), sodium ascorbate (100 µM), and (NH4)2Fe(SO4)2 (10 µM), and […]

T1 sequence (Q9GZT9 181-426 limits assumed): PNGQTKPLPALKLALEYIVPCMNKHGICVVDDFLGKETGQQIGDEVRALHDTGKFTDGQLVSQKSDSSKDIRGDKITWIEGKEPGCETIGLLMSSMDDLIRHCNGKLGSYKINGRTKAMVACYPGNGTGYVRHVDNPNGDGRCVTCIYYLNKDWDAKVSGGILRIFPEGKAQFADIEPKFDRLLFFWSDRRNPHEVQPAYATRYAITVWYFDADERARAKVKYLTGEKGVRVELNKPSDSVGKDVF

| Compound | inhibition of PHD2 hydroxylation activity, in words |
| --- | --- |
| Cn1c(O)c(C(=O)c2ccccc2)c(=O)n(C)c1=O [compound 24] | Lack of inhibition |
| Cn1c(O)c(C(=O)Cc2ccccc2)c(=O)n(C)c1=O [compound 25] | Lack of inhibition |

test system: PHD enzymes in HeLa cells; experiment: HIFα Western blot in HeLa cells (activity of PHD enzymes in cells); type: cell-based, human; conditions: HeLa cells treated 5 h, anti-HIF-1α Western blot
Description: supplemented with 80 µM Zn(II), 70 µM of inhibitor, all in 50 mM Tris-d11, pH 7.5, 10 % D2O, […]
Cell Culture and Immunoblotting
HeLa cells were cultured in DMEM media supplemented with 10 % fetal bovine serum, 4 mM L-glutamine, 100 U/mL penicillin, and 100 µg/mL streptomycin. Cells were treated with the indicated compounds, prepared in 1% DMSO, for 5 h. Following a PBS buffer rinse, cells were lysed in urea/SDS buffer supplemented with 1 mM dithiothreitol. Cell extracts were analyzed by SDS-PAGE, electroblotted onto PVDF membranes (Millipore) and probed with anti-HIF-1α antibody (clone 54, BD Transduction Laboratories) at 1:1000 dilution for 1 h at room temperature. The HRP-conjugated secondary antibody was then applied at room temperature for 1 h. Target proteins were detected with SuperSignal Chemiluminescent […]
ADMET in vitro Predictors
S9 liver microsome stability assays and MDCK-MDR1 efflux assays were carried out for CCT3 and CCT4 by Cyprotex (UK). Additional details are provided later in the Supporting

| Compound | HIFα stabilization in HeLa cells, in words |
| --- | --- |
| CC(C)(C)OC(=O)c1ccc(-n2[nH]cc(-n3ccnn3)c2=O)nc1 [IOX4, reference compound] | inhibits the hydroxylation of HIFα, preventing proteasomal degradation |

test system: not given; experiment: not given; conditions: not given

| Compound | melting point [°C] |
| --- | --- |
| Cc1cccc(CCC(=O)c2c(O)n(C)c(=O)n(C)c2=O)c1 | 131 |
| Cn1c(O)c(C(=O)[C@H]2C[C@H]2c2ccccc2)c(=O)n(C)c1=O | 111 |
| Cc1ccc(CCC(=O)c2c(O)n(C)c(=O)n(C)c2=O)cc1 | 140 |
| Cn1c(O)c(C(=O)CCC2CCCCC2)c(=O)n(C)c1=O | 58 |
| Cn1c(O)c(C(=O)C2Cc3ccccc3C2)c(=O)n(C)c1=O | 120 |
| CC(CC(=O)c1c(O)n(C)c(=O)n(C)c1=O)c1ccccc1 (stereo not drawn) | 100 |

biological target: T2, OGFOD1 (Homo sapiens, UniProt Q8N543); experiment: OGFOD1 inhibition assay: hydroxylation of RPS23 51-70 peptide by MALDI-TOF MS; type: biochemical; conditions: IC50 against OGFOD1, 1 μM OGFOD1; minimum measurable IC50 0.5 μM; values for 24 and 25 regarded as preliminary
T2 sequence (Q8N543 1-542): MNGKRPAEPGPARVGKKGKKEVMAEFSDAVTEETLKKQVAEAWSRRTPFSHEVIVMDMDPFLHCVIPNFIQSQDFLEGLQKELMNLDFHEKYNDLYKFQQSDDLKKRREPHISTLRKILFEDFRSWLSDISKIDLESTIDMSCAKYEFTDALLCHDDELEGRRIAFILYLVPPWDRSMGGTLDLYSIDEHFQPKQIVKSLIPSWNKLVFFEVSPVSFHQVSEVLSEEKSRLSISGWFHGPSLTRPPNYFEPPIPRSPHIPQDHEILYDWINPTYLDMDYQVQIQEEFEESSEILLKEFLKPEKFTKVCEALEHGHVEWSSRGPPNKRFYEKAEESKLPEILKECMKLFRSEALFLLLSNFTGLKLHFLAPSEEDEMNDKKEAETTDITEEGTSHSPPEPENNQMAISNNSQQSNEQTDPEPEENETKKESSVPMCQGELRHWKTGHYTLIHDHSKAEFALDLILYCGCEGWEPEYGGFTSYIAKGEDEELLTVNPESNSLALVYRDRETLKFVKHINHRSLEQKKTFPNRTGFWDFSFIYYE
Description: as §1, §2
as §3, with “(GraphPad). […]” for “(GraphPad).”

| Compound | IC50 [µM] |
| --- | --- |
| Cn1c(O)c(C(=O)c2ccccc2)c(=O)n(C)c1=O [compound 24] | 30 |
| Cn1c(O)c(C(=O)Cc2ccccc2)c(=O)n(C)c1=O [compound 25] | 2 |

same assay, conditions: OGFOD1 1 μM (Figure 3B)

| Compound | OGFOD1 inhibition in fragment-based screening, in words |
| --- | --- |
| CC(=O)c1c(O)cccc1O [compound 16, 2′,6′‐dihydroxyacetophenone] | relatively poor OGFOD1 inhibitor |
| CC(=O)C1CCCCC1=O (stereo not drawn) [compound 11, 2‐acetylcyclohexanone] | poor inhibitors |
| CC(=O)c1c(O)[nH]c(=S)[nH]c1=O [compound 19] | did not substantially increase the potency |
| CC(=O)c1c(O)n(C)c(=O)n(C)c1=O [compound 20] | improved potency |
| CCOC(=O)CC(=O)OCC [compound 10, diethyl malonate] | poor inhibitors |
| CC(=O)c1c(O)[nH]c(=O)[nH]c1=O [compound 18] | improved potency |

same assay, conditions: OGFOD1 1 µM; inhibitors at 100, 20, 5, 1 µM (Figure S9) or 5 and 1 µM (Figure S10)

| Compound | relative potency of OGFOD1 inhibition in barbiturate SAR, in words |
| --- | --- |
| Cn1c(O)c(C(=O)CCCc2ccccc2)c(=O)n(C)c1=O [compound 27] | did not provide a substantial increase in potency |
| O=C(CCC1CCCC1)c1c(O)n(C2CCCCC2)c(=O)n(C2CCCCC2)c1=O [compound 31] | less potent than 29 |
| Cn1c(O)c(C(=O)CCCCc2ccccc2)c(=O)n(C)c1=O [compound 28] | did not provide a substantial increase in potency |
| Cn1c(O)c(C(=O)NCc2ccccc2)c(=O)n(C)c1=O [compound 46] | had little effect |
| CCn1c(O)c(C(=O)CCC2CCCC2)c(=O)n(CC)c1=O [compound 30] | less potent than 29 |

same assay, conditions: OGFOD1 and PHD2 1 µM each; 23 at 100 µM (Figure 4; Figure S6)

| Compound | selectivity for OGFOD1 over PHD2, in words |
| --- | --- |
| CCOC(=O)CNC(=O)c1c(O)[nH]c(=O)[nH]c1=O [compound 22] | did not manifest clear selectivity for OGFOD1 over PHD2 |
| CCOC(=O)CNC(=O)c1c(O)n(C)c(=O)n(C)c1=O [compound 23] | did not manifest clear selectivity for OGFOD1 over PHD2 |

same assay, conditions: inhibitor 100 µM, OGFOD1 1 µM (Figures S1, S2)

| Compound | inhibition of OGFOD1 hydroxylation activity, in words |
| --- | --- |
| O=C(O)CNC(=O)c1nc(Cl)c2ccccc2c1O [compound 7, reference compound] | inhibited OGFOD1 |
| CCC(O)=C1C(=O)CC(C(=O)O)CC1=O (stereo not drawn) [compound 4, prohexadione‐calcium, reference compound] | inhibition of OGFOD1 |
| O=C1CCCC(=O)C1C(=O)c1ccc(C(F)(F)F)cc1[N+](=O)[O-] [compound 1, nitisinone, reference compound] | is an OGFOD1 inhibitor |
| trinexapac‐ethyl [compound 5, reference compound] | inhibition of OGFOD1 |
| O=C(O)CNC(=O)c1c(O)c2ccccc2n(Cc2ccccc2)c1=O [compound 9, reference compound] | inhibited OGFOD1 |
| Cc1nc(C(=O)NCC(=O)O)c(O)c2ccc(Oc3ccccc3)cc12 [compound 8, reference compound] | inhibited OGFOD1 |
